How the values were obtained:
lipolysis = assay: Blood metabolome evaluation study on human (placebo-controlled, randomized, double-blind, parallel-group; CE-TOF-MS); format: in vivo
Method: In order to evaluate the influence of supplements containing ergothioneine on the human blood metabolome, a placebo-controlled, randomized, double-blind, parallel-group study was conducted on subjects including male and female adults (46 subjects in a test food group; 46 subjects in a control food group; 92 subjects in total). In this study, one capsule containing 20 mg ergothioneine (test food) or one capsule not containing ergothioneine (control food) was fed per day for four weeks. The blood metabolome of each subject was measured for pre-testing before starting the study (before starting ingestion of the test food or control food). After ingestion of the test food or control food for four weeks, the blood metabolome of each subject was measured again (testing on week 4). The blood metabolome was measured by a capillary electrophoresis time-of-flight mass spectrometry (CE-TOF-MS) available from Human Metabolome Technologies, Inc. Two types of food for evaluation, which were indistinguishable in appearance, flavor, and the like, were used. • Test food: capsule containing a test substance (20 mg L-ergothioneine) • Control food: capsule containing no test substance Each type of food for evaluation contained raw materials such as dextrin, hydroxypropyl cellulose, carrageenan, potassium chloride, and titanium oxide, in addition to the test substance. The control food was produced using the same raw materials used in the test food, except that the test substance (L-ergothioneine) was not added. For each of lipid metabolism-related metabolites and lipids of various kinds for which significant changes were observed by the blood metabolome measurement, a ratio (test food group/control food group) was determined from the average of measurements (blood concentrations) of the test food group and the control food group at the time of testing on week 4. FIG. 1 is a graph showing blood metabolome measurements of the test food group and the control food group at the time of testing on week 4 in the form of ratios (test food group/control food group). […]

[1] = mice, oral administration, vs. mice not administered; cited from earlier work
[2] = L-ergothioneine ingested compared to no L-ergothioneine ingested

C[N+](C)(C)[C@@H](Cc1c[nH]c(=S)[nH]1)C(=O)[O-] [L-ergothioneine]
blood free fatty acid (e.g., palmitoleic acid) concentration (lipolysis; [2]): increased | blood glycerol concentration (lipolysis; [2]): significantly increased | promotion of lipolysis (lipolysis; human adults, 20 mg L-ergothioneine per day for four weeks, blood metabolome as a whole): action to promote lipolysis | peritesticular fat weight [1]: lower | triglyceride (neutral fat) level in plasma [1]: lower

Source: patent US20240189284A1, “COMPOSITION FOR PROMOTING LIPOLYSIS” (SUNTORY HOLDINGS LIMITED, priority 2021, published 2024)
